# Measurements from patent publication US20250025443A1, “COMPOUNDS AND METHODS FOR TREATING CORONA VIRUSES” (CLEAR CREEK BIO, INC., priority 2021, published 2025).
# Target: SARS-CoV-2 Papain-Like Protease (PLpro) (Severe acute respiratory syndrome coronavirus 2 (2019-nCoV) (SARS-CoV-2), UniProt P0DTD1)
# Assay: biochemical
# Conditions: PLpro enzymatic fluorescence assay; class symbols; read-out: PLpro IC50
row,Compound,IC50
1,"[2H]C1([2H])C([2H])([2H])C1(NC(=O)c1cc(OC[C@@H]2CCN2C)ccc1C)c1cc(OC)cc2ncccc12 [Compound 794, (S)-N-(1-(7-Methoxyquinolin-5-yl)cyclopropyl-2,2,3,3-d4)-2-methyl-5-((1-methylazetidin-2-yl)methoxy)benzamide]",< 100 nM
2,Cc1ccc(-c2cc(C3(NC(=O)c4cc(OC[C@@H]5CCN5C)ccc4C)COC3)c3cccnc3c2)o1 [Compound 808],< 100 nM
3,"Cc1ccc(-c2cc(C3(NC(=O)c4cc(OCC(C)N)ccc4C)CC3)c3ccccc3c2)s1 (stereo not drawn) [Compound 479, 5-(2-Aminopropoxy)-2-methyl-N-(1-(3-(5-methylthiophen-2-yl)naphthalen-1-yl)cyclopropyl)benzamide]",< 100 nM
4,"Cc1ccc(OCC(C)N)cc1C(=O)NC1(c2cc(-c3ccc(F)cc3)cc3ccccc23)CC1 (stereo not drawn) [Compound 480, 5-(2-Aminopropoxy)-N-(1-(3-(4-fluorophenyl)naphthalen-1-yl)cyclopropyl)-2-methylbenzamide]",< 100 nM
5,"Cc1ccc(OC[C@@H]2CCN2C)cc1C(=O)NC1(c2cc(-c3ccc4nccn4c3)cc3ncccc23)CC1 [Compound 702, (S)—N-(1-(7-(Imidazo[1,2-a]pyridin-6-yl)quinolin-5-yl)cyclopropyl)-2-methyl-5-((1-methylazetidin-2-yl)methoxy)benzamide]",< 100 nM
6,"CNc1cc(C2(NC(=O)c3cc(OC[C@@H]4CCN4C)ccc3C)CC2)c2cccnc2c1 [Compound 763, (S)-2-Methyl-N-(1-(7-(methylamino)quinolin-5-yl)cyclopropyl)-5-((1-methylazetidin-2-yl)methoxy)benzamide]",< 100 nM
7,"CC#Cc1cc(C2(NC(=O)c3cc(OC[C@@H]4CCN4)ccc3C)CC2)c2cccnc2c1 [Compound 696, (S)-5-(Azetidin-2-ylmethoxy)-2-methyl-N-(1-(7-(prop-1-yn-1-yl)quinolin-5-yl)cyclopropyl)benzamide]",< 100 nM
8,"[2H]C([2H])([2H])N1CC[C@H]1COc1ccc(C)c(C(=O)NC2(c3cc(C=C)cc4ncccc34)CC2)c1 [Compound 788, (S)-2-Methyl-5-((1-(methyl-d3)azetidin-2-yl)methoxy)-N-(1-(7-vinylquinolin-5-yl)cyclopropyl)benzamide]",< 100 nM
9,"Cc1ccc(OCC2CCN2C)cc1C(=O)NC1(c2c(C)ccc3ccccc23)CC1 (stereo not drawn) [Compound 458, 2-Methyl-5-((1-methylazetidin-2-yl)methoxy)-N-(1-(2-methylnaphthalen-1-yl)cyclopropyl)benzamide]",< 100 nM
10,"Cc1ccc(OC[C@@H]2CCN2)cc1C(=O)NC1(c2cc(-c3ccoc3)cc3ncccc23)CC1 [Compound 645, (S)-5-(Azetidin-2-ylmethoxy)-N-(1-(7-(furan-3-yl)quinolin-5-yl)cyclopropyl)-2-methylbenzamide]",< 100 nM
11,COc1cc(C2(NCc3cc(OCCN)ccc3C)CC2)c2cccnc2c1 [Compound 513],< 100 nM
12,"Cc1ccc(OC[C@@H]2CCN2)cc1C(=O)NC1(c2cc(-c3cc[nH]n3)cc3ncccc23)CC1 [Compound 636, (S)-N-(1-(7-(1H-Pyrazol-3-yl)quinolin-5-yl)cyclopropyl)-5-(azetidin-2-ylmethoxy)-2-methylbenzamide]",< 100 nM
13,"Cc1ccc(OC[C@@H]2CCN2)cc1C(=O)NC1(c2cc(-c3ccn(-c4ccccc4)n3)cc3ncccc23)CC1 [Compound 664, (S)-5-(Azetidin-2-ylmethoxy)-2-methyl-N-(1-(7-(1-phenyl-1H-pyrazol-3-yl)quinolin-5-yl)cyclopropyl)benzamide]",< 100 nM
14,"COc1cc(C2(NC(=O)c3cc(OC[C@@H]4CCN4C)ccc3C)CC2)c2ncccc2c1 [Compound 761, (S)-N-(1-(6-Methoxyquinolin-8-yl)cyclopropyl)-2-methyl-5-((1-methylazetidin-2-yl)methoxy)benzamide]",100 to 1000 nM
15,"COc1cc(C(C)N2CCC(C(=O)NCc3cccc(F)c3)CC2)c2cccnc2c1 (stereo not drawn) [Compound 593, N-(3-Fluorobenzyl)-1-(1-(7-methoxyquinolin-5-yl)ethyl)piperidine-4-carboxamide]",1000 to 5000 nM

# Same assay, conditions: SARS-CoV-2 PLpro enzymatic fluorescence assay; read-out: PLpro IC50
row,Compound,IC50
1,"Cc1ccc(OCCN(C)C)cc1C(=O)NC1(c2cc(-c3cccs3)cc3ccccc23)CC1 [Compound 420, 5-(2-(Dimethylamino)ethoxy)-2-methyl-N-(1-(3-(thiophen-2-yl)naphthalen-1-yl)cyclopropyl)benzamide]",< 100 nM
2,"Cc1cc2cc(CN)[nH]c2cc1C(=O)NC1(c2cccc3ccccc23)CC1 [Compound 170, 2-(Aminomethyl)-5-methyl-N-(1-(naphthalen-1-yl)cyclopropyl)-1H-indole-6-carboxamide]",< 100 nM
3,"Cc1ccc(OCC2CCN2C)cc1C(=O)NC1(c2cccc3nc(F)ccc23)CC1 (stereo not drawn) [Compound 529, N-(1-(2-Fluoroquinolin-5-yl)cyclopropyl)-2-methyl-5-((1-methylazetidin-2-yl)methoxy)benzamide]",< 100 nM
4,"Cc1cc2cc(C(C)N)[nH]c2cc1C(=O)NC1(c2cccc3ccccc23)CC1 (stereo not drawn) [Compound 273, 2-(1-Aminoethyl)-5-methyl-N-(1-(naphthalen-1-yl)cyclopropyl)-1H-indole-6-carboxamide]",< 100 nM
5,"Cc1ccc(Nc2nccs2)cc1C(=O)N[C@H](C)c1cccc2ccccc12 [Compound 107, (R)-2-Methyl-N-(1-(naphthalen-1-yl)ethyl)-5-(thiazol-2-ylamino)benzamide]",> 5000 nM
6,"Cc1ccc(OCCN(C)C)cc1C(=O)NC1(c2cccc3occc23)CC1 [Compound 357, N-(1-(Benzofuran-4-yl)cyclopropyl)-5-(2-(dimethylamino)ethoxy)-2-methylbenzamide]",100 to 1000 nM
7,"Cc1ccc(N)cc1C(=O)NC1(c2cccc3ccccc23)CC1 [Compound 147, 5-Amino-2-methyl-N-(1-(naphthalen-1-yl)cyclopropyl)benzamide]",100 to 1000 nM
8,"Cc1ccc(OCC2CCN2C)cc1C(=O)NC1(c2cccc3ccc(C(=O)O)cc23)CC1 (stereo not drawn) [Compound 465, 8-(1-(2-Methyl-5-((1-methylazetidin-2-yl)methoxy)benzamido)cyclopropyl)-2-naphthoic acid]",1000 to 5000 nM
9,"COc1cc(C2(NC(=O)c3cc(OC[C@@H]4CCCN4C)ccc3C)CC2)c2cccnc2c1 [Compound 528, (S)-N-(1-(7-Methoxyquinolin-5-yl)cyclopropyl)-2-methyl-5-((1-methylpyrrolidin-2-yl)methoxy)benzamide]",< 100 nM
10,"C=Cc1cc(C2(NC(=O)c3cc(OCC45CCCN4CCC5)ccc3C)CC2)c2cccnc2c1 [Compound 748, 2-Methyl-5-((tetrahydro-1H-pyrrolizin-7a (5H)-yl)methoxy)-N-(1-(7-vinylquinolin-5-yl)cyclopropyl)benzamide]",< 100 nM
11,"Cc1cc2ccn(CC3CNC3)c2cc1C(=O)NC1(c2cccc3ccccc23)CC1 [Compound 239, 1-(Azetidin-3-ylmethyl)-5-methyl-N-(1-(naphthalen-1-yl)cyclopropyl)-1H-indole-6-carboxamide]",< 100 nM
12,"CNCCOc1ccc(C)c(C(=O)NC2(c3cccc4cc(F)ccc34)CC2)c1 [Compound 377, N-(1-(6-Fluoronaphthalen-1-yl)cyclopropyl)-2-methyl-5-(2-(methylamino)ethoxy)benzamide]",< 100 nM
13,"CCN1CCC1COc1ccc(C)c(C(=O)NC2(c3cccc4ccccc34)CC2)c1 (stereo not drawn) [Compound 314, 5-((1-Ethylazetidin-2-yl)methoxy)-2-methyl-N-(1-(naphthalen-1-yl)cyclopropyl)benzamide]",< 100 nM
14,"Cc1ccc(OCC2CCN2C)cc1C(=O)NC1(c2c(C(C)C)ccc3ccccc23)CC1 (stereo not drawn) [Compound 457, N-(1-(2-Isopropylnaphthalen-1-yl)cyclopropyl)-2-methyl-5-((1-methylazetidin-2-yl)methoxy)benzamide]",100 to 1000 nM
15,"Cc1ccc(N)cc1NC(=O)C(C)c1cccc2ccccc12 (stereo not drawn) [Compound 163, N-(5-Amino-2-methylphenyl)-2-(naphthalen-1-yl)propanamide]",> 5000 nM
16,"Cc1ccc(OCCN(C)C)cc1C(=O)NC1(c2cccc3ccncc23)CC1 [Compound 333, 5-(2-(Dimethylamino)ethoxy)-N-(1-(isoquinolin-8-yl)cyclopropyl)-2-methylbenzamide]",100 to 1000 nM
17,"Cc1ccc(OC[C@H]2CCCN2)cc1C(=O)NC1(c2cccc3ncccc23)CC1 [Compound 371, (R)-2-methyl-5-(pyrrolidin-2-ylmethoxy)-N-(1-(quinolin-5-yl)cyclopropyl)benzamide]",< 100 nM
18,"C[C@@H](NC(=O)c1ccc2cn[nH]c2c1)c1cccc2ccccc12 [Compound 124, (R)-N-(1-(naphthalen-1-yl)ethyl)-1H-indazole-6-carboxamide]",> 5000 nM
19,"Cc1ccc(OC[C@@H]2CCN2C)cc1C(=O)NC1(c2cc(OC(C)C)cc3ncccc23)CC1 [Compound 587, (S)-N-(1-(7-Isopropoxyquinolin-5-yl)cyclopropyl)-2-methyl-5-((1-methylazetidin-2-yl)methoxy)benzamide]",< 100 nM
20,"Cc1ccc(OC[C@H]2C[C@@H](O)CN2)cc1C(=O)NC1(c2cccc3ccccc23)CC1 (racemic) [Compound 416, rac-5-(((2R,4R)-4-Hydroxypyrrolidin-2-yl)methoxy)-2-methyl-N-(1-(naphthalen-1-yl)cyclopropyl)benzamide]",< 100 nM
21,Cc1ccc(N(C)CCN(C)C)cc1C(=O)NC1(c2cccc3ccccc23)CC1 [Compound 421],< 100 nM
22,"Cc1ccc(OC2CCN(C(=O)OC(C)(C)C)CC2)cc1C(=O)N[C@H](C)c1cccc2ccccc12 [Compound 164, (R)-tert-Butyl 4-(4-methyl-3-((1-(naphthalen-1-yl)ethyl)carbamoyl)phenoxy)piperidine-1-carboxylate]",1000 to 5000 nM
23,"Cc1ccc(CCCN)cc1C(=O)NC1(c2cccc3ccccc23)CC1 [Compound 472, 5-(3-Aminopropyl)-2-methyl-N-(1-(naphthalen-1-yl)cyclopropyl)benzamide]",< 100 nM
24,"Cc1ccc(OC[C@H](C)N)cc1C(=O)NC1(c2cc(-c3cccs3)cc3ccccc23)CC1 [Compound 539, (S)-5-(2-Aminopropoxy)-2-methyl-N-(1-(3-(thiophen-2-yl)naphthalen-1-yl)cyclopropyl)benzamide]",< 100 nM
